Columns and labels:
[1] = system: female antennae of sand fly Phlebotomus papatasi and mosquitoes Aedes aegypti, Anopheles gambiae, Anopheles stephensi; experiment: GC-EAD responses of sand fly and three mosquitoes to synthetic mixtures; settings: about 100 ng of each compound, on one or more of the sand fly or the mosquitoes, FIGS. 9 and 10
Experimental: The GC-EAD responses of female antennae of the sand fly, Phlebotomus papatasi, and three species of mosquitoes, Aedes aegypti, Anopheles gambiae, and anopheles stephensi were tested on a synthetic mixture of 1-octen-3-ol, six sesquiterpene hydrocarbons including (+)-longipinene, (−)-isolongifolene, (+)-longifolene, β-caryophyllene, isolongifolenone, and α-humulene, and several known insect repellents including ZE-nepetalactone, EZ-nepetalactone, with about 100 ng of each compound in the mixture.
The GC-EAD responses of female antennae of the sand fly, Phlebotomus papatasi, and three species mosquitoes, Aedes aegypti, Anopheles gambiae, and anopheles stephensi were tested on a synthetic mixture of 1-octen-3-ol, linalool, β-caryophyllene oxide, isocaryophyllene, β-caryophyllene, and α-humulene, and DEET, with about 100 ng of each compound in the mixture.
(§1) The following procedures were employed to test the EAD response of an insect antenna to a repellent compound. The GC-EAD technique provides an efficient tool for screening behaviorally active repellents. Several synthetic mixtures of potential insect repellent candidates, mostly sesquiterpene hydrocarbons and derivatives, were analyzed in splitless mode using a Varian CP-3800 GC equipped with a polar column (Innowax; 1.0 μm film thickness, 30 m×0.53 mm ID; J & W Scientific), and a 1:1 effluent splitter that allowed simultaneous flame ionization detection (FID) and EAD of the separated volatile compounds. Helium was used as the carrier gas, and the injector temperature was 220° C. The column temperature was 50° C. for 2 min, rising to 240° C. at 10° C./min, then held for 10 min. The outlet for the EAD was held in a humidified air stream flowing at 0.5 liter/min. over an antennal preparation. A glass capillary indifferent electrode filled with Beadle-Ephrussi Ringer, and grounded via a silver wire, was inserted into the severed insect's head with the antennae. A similar recording electrode connected to a high-impedance DC amplifier with automatic baseline drift compensation was placed in contact with the distal end of one antenna (Zhang et al., Chemoecology, 10:69-80 (2000)). The antennal signals were stored and analyzed on a PC equipped with a serial IDAC interface box and the program EAD ver. 2.5 (Syntech, Hilversum, The Netherlands). The compound 1-octen-3-ol (known attractant for many flies and mosquitoes) was included in most of the synthetic mixtures, as a positive control. The results of the experiments are shown in FIGS. 1-10 and described above.

[2] = system: female mosquito Culex pipiens antenna; experiment: GC-EAD antennal response, Culex pipiens; settings: female Culex pipiens antennae; about 100 ng of each compound; responses weak, but repeatable; FIGS. 7 and 8
Experimental: The GC-EAD responses of the female mosquito Culex pipiens antenna were tested on a synthetic mixture of 1-octen-3-ol, and two sesquiterpene hydrocarbons, β-caryophyllene and isocaryophyllene, with about 100 ng of each compound in the mixture.
The GC-EAD responses of the female mosquito Culex pipiens antenna were tested on a synthetic mixture of 1-octen-3-ol, and representative sesquiterpene hydrocarbons and derivatives including (+)-longipinene, (−)-isolongifolene, (+)-longifolene, β-caryophyllene, and isolongifolenone, with about 100 ng of each compound in the mixture.
Antennal responses were weak, but repeatable, thus are considered to be true responses.
as §1

[3] = system: housefly (Musca domestica) antenna; experiment: GC-EAD antennal response, housefly; settings: female housefly antenna; synthetic mixture, about 100 ng of each compound; FIG. 3
Description: The sesquiterpene hydrocarbons and their derivatives disclosed herein have been identified as suitable insect repellents by testing via a gas chromatographic-electroantennographic detection (GC-EAD) method as described in Example 1 below. This method can be used to efficiently screen for potentially behaviorally active compounds, including insect repellents, attractants, deterrents, or attraction-inhibitors from complex natural sources or synthetic mixtures.
The GC-EAD responses of the female housefly antenna were tested on a synthetic mixture of 1-octen-3-ol, a known attractant used as a positive control, and representative sesquiterpene hydrocarbons and derivatives, (+)-longipinene, (−)-isolongifolene, (+)-longifolene, β-caryophyllene, α-humulene, and isolongifolenone, with about 100 ng of each compound in the mixture.
The GC-EAD responses of the male housefly antenna were tested on a synthetic mixture of 1-octen-3-ol, and two representative sesquiterpenes, β-caryophyllene and isocaryophyllene, with about 100 ng of each compound in the mixture.
as §1

houseflies = experiment: Laboratory sticky trap bioassay of spatial repellency with egg powder attractant; format: in vivo, housefly (Musca domestica); settings: egg powder plus repellent, FIG. 13
Experimental: Laboratory bioassay tests were carried out to investigate the efficacy of some of the EAD-active compounds described above to act as spatial repellents against several insects. The procedure for the bioassay tests is described in Example 2 below. Briefly stated, the bioassay included using egg powder (EP) as an attractant for flies, while the compound whose insect repellency was being tested was placed in proximity to the egg powder. In FIGS. 11-13, the bioassay was carried out on houseflies using devices known by the designation Trécé Pherocon® VI sticky traps.
The following lab bioassay tests were employed to illustrate the efficacy of the compounds to effectively act as spatial repellents for flies. Three sets of tests were conducted in a fly testing room (23° C., 70% RH, and 12/12 (L/D) light regime illuminated by fluorescent lights). Two sets of tests were carried out using Trécé Pherocon® VI traps with sticky inserts, which were set up on poles evenly spaced on a rotating table. The traps were ca. 1 m above a table surface, and ca. 1 m apart from each other. Two grams of egg powder in a white cap (4 cm in diameter, 0.5 cm in height) used as an attractant was put on the center of the sticky insert in the sticky trap. The potential repellent candidate chemicals were loaded into polyethylene bags, and were hung under the inner roof of the traps, 1-1.5 cm above the egg powder attractant. A control had the empty white cap and blank polyethylene bag, while the positive control had only the egg powder and an empty polyethylene bag. The test table was rotated 1.5 r.p.h. […] About 200-300 houseflies (2-3 days old) were released into the testing room for each test. Tests were normally run from 8:00 am to 5:00 pm, and the numbers of houseflies caught in each trap were counted after each test. The results of these tests are shown in FIGS. 11-13 and described above.

CC1(C)C2=CCCC(C)(C)C23CCC1C3 (single isomer, unassigned; (-)) [(−)-isolongifolene, 2,2,7,7-tetramethyltricyclo undec-5-ene]
GC-EAD antennal activity [1]: antennally active
GC-EAD antennal activity [2]: active
GC-EAD antennal activity [3]: active
female house flies per trap (houseflies; egg powder alone 76 females): 39 house flies per trap
male house flies per trap (houseflies; egg powder alone 95 males): 30 house flies per trap

From patent US8057829B2, “Methods for repelling insects using sesquiterpene hydrocarbons and their derivatives” (Sterling International Inc., priority 2008, dated 2011)
